These results are taken from patent publication US20240270673A1, “PROCESS AND SYSTEM FOR THE RECOVERY OF GLYOXYLIC ACID” (Avantium Knowledge Centre B.V., priority 2021, published 2024).

A short description of the data set: Low-temperature crystallization of oxalic acid from aqueous glyoxylic acid/oxalic acid solutions (Crystal16 parallel crystallizer), liquid phase concentration after equilibration. In kind it is physicochemical. Particulars: liquid phase after equilibration over night. The text has this: Low-temperature crystallization experiments have been carried out on a series of solutions containing glyoxylic acid and oxalic acid at different concentrations.
Solutions containing glyoxylic acid and oxalic acid at different concentrations have been prepared and were cooled under controlled conditions in a Crystal16™ parallel crystallizer (Technobis Crystallization Systems). After reaching the set temperature the mixture as left to equilibrate over night after which a sample of the liquid phase was taken to determine the concentration of oxalic acid and glyoxylic acid after crystallization.

Setting [1] is: Entry 1, T setpoint 10 degree Celsius, at RT glyoxylic 150.4 gr/L, oxalic 58.8 gr/L.
Setting [2] is: Entry 2, T setpoint 5 degree Celsius, at RT glyoxylic 150.4 gr/L, oxalic 58.8 gr/L.
Setting [3] is: Entry 3, T setpoint 0 degree Celsius, at RT glyoxylic 150.4 gr/L, oxalic 58.8 gr/L.
[4] abbreviates: Entry 4, T setpoint −5 degree Celsius, at RT glyoxylic 150.4 gr/L, oxalic 58.8 gr/L.
Where [5] appears, read: Entry 5, T setpoint 10 degree Celsius, at RT glyoxylic 310.6 gr/L, oxalic 44.1 gr/L.
Setting [6] is: Entry 6, T setpoint 5 degree Celsius, at RT glyoxylic 310.6 gr/L, oxalic 44.1 gr/L.
The mark [7] stands for this setting: Entry 7, T setpoint 0 degree Celsius, at RT glyoxylic 310.6 gr/L, oxalic 44.1 gr/L.
Setting [8] is: Entry 8, T setpoint −5 degree Celsius, at RT glyoxylic 566.8 gr/L, oxalic 29.5 gr/L.

Turning to `O=C(O)C(=O)O` [oxalic acid], the “Oxalic concentration at setpoint” value by setting is: under setting [1], 36.3 gr/L; under setting [2], 32.70 gr/L; under setting [3], 27.04 gr/L; under setting [4], 22.37 gr/L; under setting [5], 29.07 gr/L; under setting [6], 21.83 gr/L. For the same molecule, the “Oxalic concentration at setpoint” value by setting is: under setting [7], 19.25 gr/L; under setting [8], 9.57 gr/L.

In the case of `O=CC(=O)O` [glyoxylic acid, Glyoxylic acid], the “Glyoxylic concentration at setpoint” value runs as follows: under setting [1], 156.1 gr/L; under setting [2], 160.62 gr/L; under setting [3], 157.73 gr/L; under setting [4], 161.70 gr/L; under setting [5], 326.42 gr/L; under setting [6], 323.65 gr/L. For the same molecule, the “Glyoxylic concentration at setpoint” value is 332.54 gr/L under setting [7] and 573.48 gr/L under setting [8].
